What was measured:
[1] = tested on: P. yoelii nigeriensis (MDR II); assay: Resistance pattern of P. yoelii nigeriensis (MDR II) strain to antimalarials/antibiotics (oral) in Swiss mice; format: in vivo
Experimental: Swiss mice weighing 20±1 to 25±g of either sex and random laboratory bred at Central Drug Research Institute, Lucknow were used. Mice were routinely infected with 1×10^5 parasitized RBC intraperitoneally using sterile citrate saline as diluent for infected blood. […] From day 4 onwards, tail blood smears were examined after Giemsa staining and percent parasitaemia and mortality was recorded. The parasite (MDR strain) was lethal for Swiss mice and mice died in 6-8 days after developing parasitaemia above 40% to 100% infection of RBC, Mortality was 100% in mice.

[2] = human, in vivo; cited from earlier work
[3] = tested on: P. falciparum; conditions: rectal suppository, in 48-56 h; cited from earlier work
[4] = im; cited from earlier work

With `CCN(CC)Cc1cc(Nc2ccnc3cc(Cl)ccc23)ccc1O` [Amodiaquine] the Parasite response ([1]; 128 mg/kg × 4 days) was “Resistant”.

With `CCN(CC)CCCC(C)Nc1ccnc2cc(Cl)ccc12` (stereo not shown) [Chloroquine] the Parasite response ([1]; 128 mg/kg × 4 days) was “Resistant”.

With `O=C(O)c1cn(C2CC2)c2cc(N3CCNCC3)c(F)cc2c1=O` [Ciprofloxacine] the Parasite response ([1]; 50 mg/kg × 4 days) was “Resistant”.

With `CN(C)[C@@H]1C(O)=C(C(N)=O)C(=O)[C@@]2(O)C(O)=C3C(=O)c4c(O)ccc(Cl)c4[C@@H](O)[C@H]3C[C@@H]12` [Demeclocycline] the Parasite response ([1]; 500 mg/kg × 4 days) was “Resistant”.

In the case of `C[C@H]1c2cccc(O)c2C(=O)C2=C(O)[C@]3(O)C(=O)C(C(N)=O)=C(O)[C@@H](N(C)C)[C@@H]3[C@@H](O)[C@@H]21` [Doxycycline], the Parasite response ([1]; 25 mg/kg × 4 days) is reported as “Resistant”.

For `CC[C@H]1OC(=O)[C@H](C)[C@@H](O[C@H]2C[C@@](C)(OC)[C@@H](O)[C@H](C)O2)[C@H](C)[C@@H](O[C@@H]2O[C@H](C)C[C@H](N(C)C)[C@H]2O)[C@](C)(O)C[C@@H](C)C(=O)[C@H](C)[C@@H](O)[C@]1(C)O` [Erythromycin], the Parasite response ([1]; 250 mg/kg × 4 days) was “Resistant”.

For `CCCCN(CCCC)CCC(O)c1cc2c(Cl)cc(Cl)cc2c2cc(C(F)(F)F)ccc12` (stereo not shown) [Halofantrine], the Cardiotoxicity [2] is given as “increased risk of cardiotoxicity” and the Parasite response ([1]; 32 mg/kg × 4 days) is given as “Resistant”.

For `OC(c1cc(C(F)(F)F)nc2c(C(F)(F)F)cccc12)C1CCCCN1` (stereo not shown) [Mefloquine], the Parasite response ([1]; 128 mg/kg × 4 days) was “Resistant”.

For `CCN(CC)CCCC(C)Nc1c2ccc(Cl)cc2nc2ccc(OC)cc12` (stereo not shown) [Mepacrine], the Parasite response ([1]; 128 mg/kg × 4 days) was “Resistant”.

With `CCn1cc(C(=O)O)c(=O)c2cc(F)c(N3CCNCC3)cc21` [Norfloxacine] the Parasite response ([1]; 50 mg/kg × 4 days) was “Resistant”.

With `CN(C)C1C(=O)C(C(N)=O)=C(O)C2(O)C(=O)C3=C(O)c4c(O)cccc4C(C)(O)C3C(O)C12` (stereo not shown) [Oxytetracycline] the Parasite response ([1]; 500 mg/kg × 4 days) was “Resistant”.

In the case of `CCc1nc(N)nc(N)c1-c1ccc(Cl)cc1` [Pyrimethamine], the Parasite response ([1]; 16 mg/kg × 4 days) is reported as “Resistant”.

With `C=C[C@H]1C[N@@]2CC[C@H]1C[C@@H]2[C@@H](O)c1ccnc2ccc(OC)cc12` [Quinidine] the Parasite response ([1]; 400 mg/kg × 4 days) was “Resistant”.

For `C=C[C@H]1C[N@@]2CC[C@H]1C[C@H]2[C@H](O)c1ccnc2ccc(OC)cc12` [Quinine], the Parasite response ([1]; 400 mg/kg × 4 days) was “Resistant”.

In the case of `CN(C)C1C(=O)C(C(N)=O)=C(O)C2(O)C(=O)C3=C(O)c4c(O)cccc4C(C)(O)C3CC12` (stereo not shown) [Tetracycline], the Parasite response ([1]; 500 mg/kg × 4 days) is reported as “Resistant”.

For `COc1cc(C)c2c(Oc3cccc(C(F)(F)F)c3)c(OC)cc(NC(C)CCCN)c2n1` (stereo not shown) [WR238605], the Parasite response ([1]; 10 mg/kg × 7 days) was “Resistant”.

In the case of `C[C@@H]1CC[C@H]2[C@@H](C)C(=O)O[C@@H]3O[C@@]4(C)CC[C@@H]1[C@]32OO4` [artemisinin], the “Dose needed for complete parasite clearance” value [3] is given as 2800 mg.

In the case of `C[C@H]1[C@H](OC(=O)CCC(=O)O)O[C@@H]2O[C@@]3(C)CC[C@H]4[C@H](C)CC[C@@H]1[C@@]24OO3` [artesunate], the LD50 [4] is listed as 475 mg/kg.
